From US6620828B2, “Thiazole compounds and pharmaceutical compositions for inhibiting protein kinases and methods for their use” (Agouron Pharmaceuticals, Inc., priority 1999, dated 2003)

Columns and labels:
Type in all cases: biochemical
CDK4/Cyclin D3 complex = biological target: T1, CDK4/Cyclin D3 complex (Homo sapiens, UniProt P11802); experiment: CDK4/Cyclin D assay; conditions: 1.0 μM; combinatorial library compounds
T1 construct: made in house; host or cells: insect cells co-infected with baculovirus vectors
Outline: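 Insect-cell-expressed CDK4/cyclin D3 (50 nM) phosphorylating His-tagged Rb fragment (residues 386-928) with 25 μM [^32P]ATP in HEPES pH 7.4, MgCl2, 2% DMSO; 20 min at 30 °C, EDTA stop. Filter-captured 32P by phosphorimager; apparent Ki from competitive or tight-binding inhibition fits.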

FL-CHK1 = biological target: T2, FL-CHK1 (Homo sapiens, UniProt O14757); experiment: CHK1 assay; conditions: 20 μM; combinatorial library compounds
T2 construct: C-terminally His-tagged full-length human CHK1 (FL-CHK1); 6xHis (C); made in house; host or cells: baculovirus/insect cells
T2 sequence (O14757 1-476): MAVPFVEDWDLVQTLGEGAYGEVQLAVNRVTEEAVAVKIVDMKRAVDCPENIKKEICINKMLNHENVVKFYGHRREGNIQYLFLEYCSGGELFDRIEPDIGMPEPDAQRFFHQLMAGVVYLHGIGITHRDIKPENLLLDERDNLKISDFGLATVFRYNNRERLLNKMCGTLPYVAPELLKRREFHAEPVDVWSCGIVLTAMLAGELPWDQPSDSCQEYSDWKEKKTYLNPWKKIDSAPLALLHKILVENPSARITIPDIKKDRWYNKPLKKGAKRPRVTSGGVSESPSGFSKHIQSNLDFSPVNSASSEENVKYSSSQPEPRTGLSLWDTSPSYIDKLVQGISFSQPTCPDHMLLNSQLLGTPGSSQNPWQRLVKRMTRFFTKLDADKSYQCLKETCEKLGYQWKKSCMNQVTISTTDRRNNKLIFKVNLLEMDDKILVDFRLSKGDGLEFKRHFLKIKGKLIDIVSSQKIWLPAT
Outline: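 Full-length human CHK1 with C-terminal 6×His tag, made in baculovirus/insect cells, 10 nM, phosphorylating 0.125 mM Syntide-2 with 0.15 mM ATP in 50 mM Tris pH 7.5, 25 mM MgCl2, 400 mM NaCl. PK/LDH-coupled NADH oxidation read at 340 nm. Ki from initial rates over varied compound concentrations.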

[1] = biological target: T3, phosphorylated VEGF-R2Δ50 (FLVK-P) (Homo sapiens, UniProt P35968, DEL940-989/E990V); experiment: VEGF-R2 coupled spectrophotometric (FLVK-P) assay; conditions: read-out: VEGF % inhibition at 20 μM, 20 μM; combinatorial library compounds
T3 construct: VEGF-R2Δ50 contains residues 806-939 and 990-1171; made in house; host or cells: baculovirus/insect cells
Outline: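 Baculovirus-expressed human VEGF-R2Δ50 (residues 806-939/990-1171, E990V) was autophosphorylated with 3 mM ATP, 40 mM MgCl2 for 2 h at 4° C. ADP formation was coupled via PK/LDH to NADH oxidation, read at 340 nm, with 5.1 mM poly(E4Y1), 1 mM ATP, 25 mM MgCl2, Hepes pH 7.5. Ki came from activity across compound concentrations.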

CDK2/Cyclin A complex = CDK2/Cyclin A complex (Homo sapiens, UniProt P24941); experiment: CDK2/Cyclin A assay; conditions: 1.0 μM; combinatorial library compounds
Outline: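 Radiometric assay: 150 nM CDK2/cyclin A (insect-cell CDK2, truncated cyclin A) phosphorylates His-tagged Rb fragment (residues 386-928) with 25 μM ATP plus [32P]ATP, pH 7.4 HEPES, 2% DMSO, 30 °C for 20 min. Filter-captured product counted by phosphorimager; apparent Ki from competitive or tight-binding inhibition fits.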

T3 sequence (P35968 with tags, fused parts or gaps DEL940-989/E990V limits assumed): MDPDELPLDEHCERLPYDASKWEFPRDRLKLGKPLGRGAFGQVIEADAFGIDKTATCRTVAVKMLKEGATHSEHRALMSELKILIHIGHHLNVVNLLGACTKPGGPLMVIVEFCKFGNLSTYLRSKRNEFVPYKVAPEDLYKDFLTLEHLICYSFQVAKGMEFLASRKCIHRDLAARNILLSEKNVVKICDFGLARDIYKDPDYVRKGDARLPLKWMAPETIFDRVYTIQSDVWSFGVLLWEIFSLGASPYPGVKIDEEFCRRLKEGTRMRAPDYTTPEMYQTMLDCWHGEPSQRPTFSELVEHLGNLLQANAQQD
T1 sequence (P11802 whole entry): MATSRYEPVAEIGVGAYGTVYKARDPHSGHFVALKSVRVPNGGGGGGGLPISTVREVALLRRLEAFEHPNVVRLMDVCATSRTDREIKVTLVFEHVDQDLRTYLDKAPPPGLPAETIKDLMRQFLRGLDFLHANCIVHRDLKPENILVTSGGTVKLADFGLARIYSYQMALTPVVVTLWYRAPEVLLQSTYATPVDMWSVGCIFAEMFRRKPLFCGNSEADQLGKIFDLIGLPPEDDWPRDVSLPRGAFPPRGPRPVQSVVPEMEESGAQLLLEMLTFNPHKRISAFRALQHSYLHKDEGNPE
T1 sequence (P30281 whole entry partner): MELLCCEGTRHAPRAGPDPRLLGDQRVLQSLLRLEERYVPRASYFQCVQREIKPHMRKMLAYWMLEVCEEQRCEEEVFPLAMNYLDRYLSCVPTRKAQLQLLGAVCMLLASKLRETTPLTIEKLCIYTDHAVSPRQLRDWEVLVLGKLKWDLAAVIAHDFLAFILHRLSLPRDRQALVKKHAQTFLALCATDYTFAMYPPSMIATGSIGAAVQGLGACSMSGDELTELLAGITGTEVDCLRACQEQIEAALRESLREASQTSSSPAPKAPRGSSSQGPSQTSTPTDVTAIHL

Row | Structure (SMILES) | inhibition at 1 µM (CDK4/Cyclin D3 complex) [%] | inhibition at 20 µM (FL-CHK1) [%] | inhibition at 20 µM [1] [%] | inhibition at 1 µM (CDK2/Cyclin A complex) [%]
1 | CC(C)c1ccc(Nc2nc(N)c(-c3nc(-c4ccc(C#N)cc4)cs3)s2)cc1 | 58.4 | 7.1 | 7 | 5.9
2 | CC(C)c1ccc(Nc2nc(N)c(-c3nc(-c4ccc(Cl)cc4Cl)cs3)s2)cc1 | 81.4 | 21.4 | 23 | 25.7
3 | Cc1onc(-c2ccccc2)c1-c1csc(-c2sc(Nc3ccc(C(C)C)cc3)nc2N)n1 | 49.8 | -0.9 | 5 | 11.1
4 | CC(C)c1ccc(Nc2nc(N)c(-c3nc(-c4ccc5c(c4)OCCO5)cs3)s2)cc1 | 50.6 | 23.8 | 14 | 22
5 | CC(C)c1ccc(Nc2nc(N)c(-c3nc(-c4ccc(OC(=O)c5ccccc5)cc4)cs3)s2)cc1 | 45.9 | 7.5 | -4 | 73
6 | CC(C)c1ccc(Nc2nc(N)c(-c3nc(-c4ccc[nH]4)cs3)s2)cc1 | 53.3 | 17.6 | 22 | 19
7 | CC(C)c1ccc(Nc2nc(N)c(-c3nc(-c4cccc([N+](=O)[O-])c4)cs3)s2)cc1 | 35.3 | 7.2 | -2 | 24.7
8 | Cc1cc(-c2csc(-c3sc(Nc4ccc(C(C)C)cc4)nc3N)n2)cc(C)c1O | 74.6 | 5.1 | 45 | 14.1
9 | CC(C)c1ccc(Nc2nc(N)c(-c3nc(-c4c(Cl)c(Cl)nc(Cl)c4Cl)cs3)s2)cc1 | 72.7 | 19.3 | 30 | 12.5
10 | Cc1ccc(-c2csc(-c3sc(Nc4ccc(C(C)C)cc4)nc3N)n2)c(C)c1 | 50 | -2.5 | 14 | 23.3
11 | CC(C)c1ccc(Nc2nc(N)c(-c3nc(-c4ccc(CC(=O)O)s4)cs3)s2)cc1 | 61.8 | 13 | 33 | 21.8
12 | COc1cc(OC)c(-c2csc(-c3sc(Nc4ccc(C(C)C)cc4)nc3N)n2)c(O)c1Cl | 72.8 | 38.9 | 51 | 31.8

Results, then the compound that gave them:

Row | inhibition at 1 µM (CDK4/Cyclin D3 complex) [%] | inhibition at 20 µM (FL-CHK1) [%] | inhibition at 20 µM [1] [%] | inhibition at 1 µM (CDK2/Cyclin A complex) [%] | Structure (SMILES)
13 | 62.7 | 31.6 | 28 | 23.8 | CC(C)c1ccc(Nc2nc(N)c(-c3nc(-c4ccc(O)c(O)c4)cs3)s2)cc1
14 | 51.2 | 10.7 | -2 | 17.2 | CC(C)c1ccc(Nc2nc(N)c(-c3nc(-c4ccc5ccccc5c4)cs3)s2)cc1
15 | 80.7 | 39.8 | 48 | 16.1 | CC(C)c1ccc(Nc2nc(N)c(-c3nc(-c4ccc(F)cc4)cs3)s2)cc1
16 | 39.5 | 10.9 | 5 | 21.2 | CC(C)c1ccc(Nc2nc(N)c(-c3nc(-c4ccc(F)c(F)c4)cs3)s2)cc1
17 | -7.9 | 0.3 | -4 | 10.4 | CC(C)c1ccc(Nc2nc(N)c(-c3nc(-c4ccc(Cl)c(Cl)c4)cs3)s2)cc1
18 | 77 | 25 | 49 | 10.5 | CC(C)c1ccc(Nc2nc(N)c(-c3nc(-c4ccc(O)cc4)cs3)s2)cc1
19 | 48 | 8.8 | 5 | 21.7 | CC(C)c1ccc(Nc2nc(N)c(-c3nc(-c4cccc(OC(=O)c5ccccc5)c4)cs3)s2)cc1
20 | 75.5 | 18.9 | 39 | -4.3 | CC(C)c1ccc(Nc2nc(N)c(-c3nc(-c4ccc5oc6ccccc6c5c4)cs3)s2)cc1
